This is an account of results in patent US6235787A, “Hydrazine derivatives” (Hoffmann-La Roche Inc., priority 1997, dated 2001).

Type in all cases: cell-based
Assay [1] deals with TNF-α release (THP1 cells). Kind of assay: Test A: Inhibition of TNF-α Release (LPS-stimulated THP1 cells, ELISA). Particulars: Homo sapiens, THP-1, LPS-induced TNF-α release, 3 hours, 37° C., read-out: Test A IC50 (nMol). The procedure: Test A: Inhibition of TNF-α Release
THP1 cells were cultivated in RPMI 1640 medium supplemented with antibiotics and 10% foetal calf serum, harvested by centrifugation and diluted to 5×10^5 cells/ml in the above medium supplemented with 20 mM HEPES buffer. Aliquots ([…]) of the cell suspension were plated out on 96 well culture plates and incubated for 0.5 hour at 37° C. prior to the addition of the test compounds. The latter were dissolved in dimethyl sulphoxide (DMSO) to a stock concentration of 1.2 mM which was diluted with phosphate buffered saline/10% DMSO solution to provide test compounds in final concentrations of 10^-9 to 10^-5 M, with each concentration being tested in duplicate. The cells were incubated with the test compounds for 0.5 hour at 37° C., LPS (bacterial lipopolysaccharide) was then added to a concentration of […] and incubation was continued for 3 hours at 37° C. in an atmosphere containing 5% CO2 and at 95% relative humidity. After centrifugation at 260 g for 10 minutes an aliquot of each supernatant was removed and the amount of TNF-a was estimated by ELISA (R & D Systems Europe Ltd., Abingdon, England). The concentration of test compound which brings about 50% inhibition of LPS-induced TNF-a release (IC50) was computed from the dose-response curve.

For assay [2], the system named is TGF-α release (Normal human epidermal keratinocytes). Nature of the assay: Test B: Inhibition of TGF-α Release (TPA-stimulated NHEK). Particulars: 24 hours, 37° C., read-out: Test B IC50 (nMol). The procedure:
Test B: Inhibition of TGF-α Release
This test is an adaptation of the method described by R. J. Coffrey, R. Derynk, J. N. Wilcox, T. S. Bringman, A. S. Goustin, H. L. Moses and M. R. Pittelkow, Nature, (1987), 328, 816-820. Normal human epidermal keratinocytes (NHEK) (neonatal and adult) were supplied by Clonetics Corporation, San Diego, Calif., USA and at the third passage were plated out on 96 well culture plates at 2×10^3 to 10^4 cells per well and grown in a humidified incubator having a 5% CO2 atmosphere at 37° C. for 5 days in serum-free keratocyte growth medium (KGM; Clonetics Corporation). Test compounds were dissolved in DMSO and then diluted 10 times in keratinocyte basal medium (KBM; Clonetics Corporation). Serial dilutions of the test compounds were made in 10% DMSO in KBM to provide concentrations 12 times higher than the final assay concentration. The test compound dilutions (or vehicle only as controls) were added to the cells and incubation was then carried out at 37° C. for 0.5 hour. TGF-a release was then stimulated by the addition of 10 ng/ml TPA (phorbol 12-myristate 13-acetate). […]

In assay [3] the test system is Normal human epidermal keratinocytes (NHEK). Kind of assay: Test C: Inhibition of Keratinocyte Proliferation (3H-thymidine incorporation). The settings on record: 3 days, read-out: Test C IC50 (nMol). The procedure:
Test C: Inhibition of Keratinocyte Proliferation
This test is an adaptation the methods described by T. Karashima, H. Hachisuka and Y. Sasai, J. Dermatol. Sci., (1996), 12, 246-254 and A. Olaniran, B. S. Baker, J. J. Garioch, A. V. Powles and L. Fry, Arch. Dermatol. Res., (1995), 287, 231-236. Normal human epidermal keratinocytes (NHEK) (neonatal and adult) were plated out on 96 well culture plates at 2×10^3 cells per well. Following attachment of the cells to the plate by incubation for 24 hours in a humidified incubator having a 5% CO2 atmosphere at 37° C. in serum-free KGM (see above), the medium was replaced with KBM (see above) for 4 days in order to arrest the growth of the cells. Test compounds were dissolved in DMSO and then diluted 10 times in KBM. Serial dilutions of the test compounds were made in 10% DMSO in KBM to provide concentrations 11 times higher than the final assay concentration. The cells were then returned to KGM and the test compound dilutions (or vehicle only for controls) were added immediately. After incubation for 3 days the cells were pulsed with […] ^3 H-thymidine, specific activity 5 Ci/mmol (Amersham International plc, Little Chalfont, Buckinghamshire, UK), for the last 16 hours. Cells were then detached using trypsin-EDTA and harvested. ^3 H-Thymidine incorporation as a measure of proliferation was determined by scintillation counting techniques. […]
For orientation: Incorporation of labelled thymidine or its analogues reports DNA synthesis.

The structures appear in SMILES notation.

As a reminder, the IC50 is the concentration that inhibits the measured activity by half.

As for `CC(C)C[C@@H](C(=O)NN(Cc1ccccc1)S(C)(=O)=O)[C@H](C/C=C/c1ccccc1)C(=O)NO` [C, (E)-2'-Benzyl-2(R)-[1(S)-(hydroxycarbamoyl)-4-phenyl-3-butenyl]-2'-(methanesulphonyl)-4-methylvalerohydrazide], the IC50 in assay [1] was found to be 0.365 µM. On to `CC(C)C[C@@H](C(=O)NN(c1ccccc1)S(C)(=O)=O)[C@H](C/C=C/c1ccccc1)C(=O)NO` [Compound A, (E)-2(R)-[1(S)-(Hydroxycarbamoyl)-4-phenyl-3-butenyl]-2'-(methanesulphonyl)-4-methyl-2'-phenylvalerohydrazide], for which the 50% inhibitory concentration (IC50) in assay [1] is 0.437 µM; in assay [2], 0.21 µM; in assay [3] it was 1.3 µM. `COc1ccc(N(NC(=O)[C@H](CC(C)C)[C@H](C/C=C/c2ccccc2)C(=O)NO)S(C)(=O)=O)cc1` [Compound B, 1(E)-2(R)-[1(S)-(Hydroxycarbamoyl)-4-phenyl-3-butenyl]-2'-(methanesulphonyl)-2'-(4-methoxyphenyl)-4-methylvalerohydrazide]: the IC50 was 0.515 µM in assay [1], 0.255 µM in assay [2] and 1.1 µM in assay [3]. As to `COC(=O)N(CC(C)C)NC(=O)[C@H](CC(C)C)[C@H](C/C=C/c1ccccc1)C(=O)NO` [Compound I, Methyl (E)-3-[2(R)-[1(S)-(hydroxycarbamoyl)-4-phenyl-3-butenyl]-4-methylvaleryl]-2-isobutylcarbazate], the IC50 in assay [1] came out at 0.881 µM. `CC(C)C[C@@H](C(=O)NN(CC1CCCCC1)S(C)(=O)=O)[C@H](C/C=C/c1ccccc1)C(=O)NO` [D, (E)-2'-(Cyclohexylmethyl)-2(R)-[1(S)-(hydroxycarbamoyl)-4-phenyl-3-butenyl]-2'-(methanesulphonyl)-4-methylvalerohydrazide]: in assay [1], the IC50 is 0.408 µM. Still for that read-out and setting: the figure for `CC(C)C[C@@H](C(=O)NN(CC(C)C)S(C)(=O)=O)[C@H](C/C=C/c1ccccc1)C(=O)NO` [E, (E)-2(R)-[1(S)-(Hydroxycarbamoyl)-4-phenyl-3-butenyl]-2'-isobutyl-2'-(methanesulphonyl)-4-methylvalerohydrazide] is 0.531 µM; for `CC(C)C[C@@H](C(=O)NN1C(=O)CCCC1=O)[C@H](C/C=C/c1ccccc1)C(=O)NO` [F, (E)-2(R)-[(1S)-(Hydroxycarbamoyl)-4-phenyl-3-butenyl]-4-methyl-N-(2,6-dioxopiperidino)valeramide] it is 1.52 µM. `CC[C@H](C)CN(NC(=O)[C@H](CC(C)C)[C@H](C/C=C/c1ccccc1)C(=O)NO)S(C)(=O)=O` [G, (E)-2(R)-[1(S)-(hydroxycarbamoyl)-4-phenyl-3-butenyl]-2'-(methanesulphonyl)-4-methyl-2'-[2(S)-methylbutyl]valerohydrazide]: in assay [1], the IC50 stood at 0.428 µM.

Turning to `C=C(C)CN(NC(=O)[C@H](CC(C)C)[C@H](C/C=C/c1ccccc1)C(=O)NO)S(C)(=O)=O` [H], the concentration for half-maximal inhibition (IC50) in assay [1] was 0.381 µM. For `CC(C)CC(=O)N(CC(C)C)NC(=O)[C@H](CC(C)C)[C@H](C/C=C/c1ccccc1)C(=O)NO` [J, (E)-2(R)-[(S)-(Hydroxycarbamoyl)-4-phenyl-3-butenyl]-2'-(isobutyl)-2'-(isopentanoyl)-4-methylvalerohydrazide], in assay [1], the IC50 was 0.933 µM.
